Measured values published in ChEMBL document CHEMBL1132905, “Synthesis of glycosylated polyethylenimine with reduced toxicity and high transfecting efficiency” (Bioorg Med Chem Lett, 2000).

Experiment: Lethal dose against HeLa cells, from a human cervix epitheloid carcinoma
Format: toxicity, cell-based
Details: read-out: LD50 (the source's name)

CCN(CCNC)CCNC[C@H](O)[C@@H](O)[C@H](O[C@@H]1O[C@H](CO)C(O)[C@H](O)[C@H]1O)[C@H](O)CO (stereo partly specified) [GLYCOSYLATED PEI]
CC50: > 300 µM
